Results taken from patent US20110098278A1 (priority 2009, published 2011).
“And” between values parts separate entries of the source, which are not always exact repeats. Identical values can stand only once. Counter-ions that a name gives are not always drawn. Like-named read-outs stand apart in the source and are kept apart here.

Tests used:
[1] = biological target: T1, human acetylcholine esterase (Homo sapiens, UniProt P22303); experiment: Human acetylcholine esterase inhibition (human recombinant, HEK-293 cells; Ellman photometry); format: biochemical; conditions: for inhibitory action toward human acetylcholine esterase (in words): in contrast to galantamine
T1 construct: host or cells: HEK-293 cells

[2] = tested on: rabbit stomach circular smooth muscle; experiment: Ex vivo rabbit stomach circular smooth muscle, electrical field stimulation; format: cell-based; conditions: rabbit stomach strips under EFS; 100 nM to 100 μM
ferret = experiment: Emetic activity (retching and vomiting) in the ferret
[3] = tested on: human stomach circular smooth muscle; experiment: Ex vivo human stomach circular smooth muscle, electrical field stimulation; format: cell-based; conditions: human stomach strips under EFS; 100 nM to 100 μM
Sprague Dawley rat = experiment: PICA behavior (kaolin consumption) in the Sprague Dawley rat as surrogate for emesis; format: in vivo
Method: This is a well established model for this purpose in the rat (Takeda N et al (1993) 45 817-21).
Once determined, a comparison was made of the effects of these doses on kaolin consumption over a 0-96 hour period in 24 h increments.
In detail groups of 10 male Sprague Dawley rats were habituated to kaolin for 3 days, then singly housed in grid-bottomed cages and habituated for a further 2 days prior to dosing. On the day of drug administration, the animals were food-deprived for 1 h prior to dosing. […] Access to a weighed quantity of food and kaolin was then restored. Food and kaolin was weighed 24, 48, 72 and 96 h after dosing.

[4] = USP SGF pH 1.2, 37 deg. C., 0 hours
[5] = USP SGF pH 1.2, 37 deg. C., 1 hour
[6] = USP SIF pH 6.8, 37 deg. C., 0 hours
[7] = USP SIF pH 6.8, 37 deg. C., 2 hours
[8] = human recombinant (HEK-293 cells), AMTCh 50 μM, 30 min./37° C., read-out: IC50 for inhibition of human acetyl choline esterase
[9] = 40 mg/kg as base p.o., 2 hr. observation, individual ferrets
[10] = 20 mg/kg p.o., 2 hr. observation, individual ferrets, listed as Galantamine valine ester tartrate
[11] = 20 mg (free base)/kg oral or similar molar dose

T1 sequence (P22303 32-614): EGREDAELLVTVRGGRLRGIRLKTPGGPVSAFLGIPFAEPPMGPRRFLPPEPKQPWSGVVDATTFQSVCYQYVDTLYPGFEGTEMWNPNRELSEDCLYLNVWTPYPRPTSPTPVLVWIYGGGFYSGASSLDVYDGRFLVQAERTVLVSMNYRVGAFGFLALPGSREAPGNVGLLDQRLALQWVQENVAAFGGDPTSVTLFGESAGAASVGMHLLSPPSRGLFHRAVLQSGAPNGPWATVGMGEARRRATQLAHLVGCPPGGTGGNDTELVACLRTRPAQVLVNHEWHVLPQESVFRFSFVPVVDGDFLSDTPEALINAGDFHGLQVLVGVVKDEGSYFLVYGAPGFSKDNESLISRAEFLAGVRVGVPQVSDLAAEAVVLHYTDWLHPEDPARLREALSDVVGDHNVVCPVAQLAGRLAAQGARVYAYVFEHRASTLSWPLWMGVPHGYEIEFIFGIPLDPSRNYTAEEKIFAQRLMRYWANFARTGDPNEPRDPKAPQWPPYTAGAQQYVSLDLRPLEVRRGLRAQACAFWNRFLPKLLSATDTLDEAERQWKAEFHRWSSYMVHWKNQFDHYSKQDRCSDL

## COc1ccc2c3c1O[C@H]1C[C@@H](OC(=O)CCCC(=O)Nc4ccc(C(=O)O)cc4)C=C[C@@]31CCN(C)C2 [Galantamine [glutaryl-PABA] ester, galantamine (glutaryl-PABA) ester trifluoroacetate]
[1]
  IC50: > 100 µM
  inhibitory action toward human acetylcholine esterase (in words): significantly less inhibitory actions

## COc1ccc2c3c1O[C@H]1C[C@@H](OC(=O)Nc4ccc(C(=O)O)cc4)C=C[C@@]31CCN(C)C2 [Galantamine para amino benzoic acid carbamate]
[4]
  % Prodrug Remaining: 100-%
[5]
  % Prodrug Remaining: 100%
[6]
  % Prodrug Remaining: 100%
[7]
  % Prodrug Remaining: 100%
[1]; [8]
  IC50: 32 µM

## COc1ccc2c3c1O[C@H]1C[C@@H](OC(=O)NCc4ccc(C(=O)O)cc4)C=C[C@@]31CCN(C)C2 [Galantamine para-amino methyl benzoic acid carbamate]
[4]
  % Prodrug Remaining: 100%
[5]
  % Prodrug Remaining: 100%
[6]
  % Prodrug Remaining: 100%
[7]
  % Prodrug Remaining: 100%
[1]; [8]
  IC50: 46 µM

## COc1ccc2c3c1O[C@H]1C[C@@H](OC(=O)N[C@@H](Cc4ccccc4)C(=O)O)C=C[C@@]31CCN(C)C2 [Galantamine phenylalanine carbamate, galantamine-(S)-phenylalanine carbamate trifluoroacetate]
[4]
  % Prodrug Remaining: 94.7%
[5]
  % Prodrug Remaining: 94.7%
[6]
  % Prodrug Remaining: 95.9%
[7]
  % Prodrug Remaining: 95.6%

## COc1ccc2c3c1O[C@H]1C[C@@H](OC(=O)CCC(=O)N[C@H](C(=O)O)C(C)C)C=C[C@@]31CCN(C)C2.O=C(O)C(F)(F)F [Galantamine succinyl valine ester, galantamine-[succinyl-(S)-valine]ester trifluoroacetate]
[2]
  stimulation of smooth muscle contractions (change in force production): complete absence of any such effect
ferret; [9]
  Time (min) to onset of: Retching: >120 min
  Time (min) to onset of: Vomiting: >120 min
  Total number of individual incidences of: Retching: 0
  Total number of individual incidences of: Vomiting: 0
ferret; 40 mg/kg as base p.o., Mean
  Time (min) to onset of: Retching: >120 min
  Time (min) to onset of: Vomiting: >120 min
  Total number of individual incidences of: Retching: 0
  Total number of individual incidences of: Vomiting: 0
ferret; oral 40 mg galantamine (free base equivs)/kg
  retching or vomiting (in words): no retching or vomiting at all was observed
[3]
  stimulation of smooth muscle contractions (change in force production): complete absence of any such effect
[1]
  IC50: > 100 µM
  inhibitory action toward human acetylcholine esterase (in words): significantly less inhibitory actions
Sprague Dawley rat; 11.75 mg galantamine free base content/kg po, 24 h
  Cumulative mean ± SD kaolin consumption: 0.14 ± 0.20 g
Sprague Dawley rat; 11.75 mg galantamine free base content/kg po, 48 h
  Cumulative mean ± SD kaolin consumption: 0.29 ± 0.24 g
Sprague Dawley rat; 11.75 mg galantamine free base content/kg po, 72 h
  Cumulative mean ± SD kaolin consumption: 0.48 ± 0.27 g
Sprague Dawley rat; 11.75 mg galantamine free base content/kg po, 96 h
  Cumulative mean ± SD kaolin consumption: 0.57 ± 0.40 g
Sprague Dawley rat; 23.5 mg galantamine free base content/kg po, 24 h
  Cumulative mean ± SD kaolin consumption: 0.31 ± 0.53 g
Sprague Dawley rat; 23.5 mg galantamine free base content/kg po, 48 h
  Cumulative mean ± SD kaolin consumption: 0.61 ± 0.69 g
Sprague Dawley rat; 23.5 mg galantamine free base content/kg po, 72 h
  Cumulative mean ± SD kaolin consumption: 0.95 ± 0.96 g
Sprague Dawley rat; 23.5 mg galantamine free base content/kg po, 96 h
  Cumulative mean ± SD kaolin consumption: 1.25 ± 1.31 g
Sprague Dawley rat; 47 mg galantamine free base content/kg po, 24 h
  Cumulative mean ± SD kaolin consumption: 0.15 ± 0.18 g
Sprague Dawley rat; 47 mg galantamine free base content/kg po, 48 h
  Cumulative mean ± SD kaolin consumption: 0.40 ± 0.18 g
Sprague Dawley rat; 47 mg galantamine free base content/kg po, 72 h
  Cumulative mean ± SD kaolin consumption: 0.63 ± 0.28 g
Sprague Dawley rat; 47 mg galantamine free base content/kg po, 96 h
  Cumulative mean ± SD kaolin consumption: 0.91 ± 0.45 g
Sprague Dawley rat; 47 mg galantamine free base content/kg po, 96 h, listed as GSVE
  Cumulative mean ± SD kaolin consumption: 0.91 ± 0.45 g
Sprague Dawley rat; oral, up to 47 mg (galantamine free base content)/kg
  kaolin consumption compared with vehicle alone (in words): little evidence for any increase in kaolin consumption

## COc1ccc2c3c1O[C@H]1C[C@@H](OC(=O)Nc4cccc(C(=O)O)c4)C=C[C@@]31CCN(C)C2 [Galantamine meta amino benzoic acid carbamate]
[4]
  % Prodrug Remaining: 100%
[5]
  % Prodrug Remaining: 100%
[6]
  % Prodrug Remaining: 100%
[7]
  % Prodrug Remaining: 100%
[1]; [8]
  IC50: 26 µM

## [Cl-].[Li+] [LiCl]
Sprague Dawley rat; positive control, 130 mg base/kg po, 24 h
  Cumulative mean ± SD kaolin consumption: 3.33 ± 1.98 g
Sprague Dawley rat; positive control, 130 mg base/kg po, 48 h
  Cumulative mean ± SD kaolin consumption: 3.71 ± 2.22 g
Sprague Dawley rat; positive control, 130 mg base/kg po, 72 h
  Cumulative mean ± SD kaolin consumption: 4.42 ± 2.82 g
Sprague Dawley rat; positive control, 130 mg base/kg po, 96 h
  Cumulative mean ± SD kaolin consumption: 4.82 ± 3.11 g

## COc1ccc2c3c1O[C@H]1C[C@@H](OC(=O)Nc4ccc(C(=O)O)cn4)C=C[C@@]31CCN(C)C2 [Galantamine para-amino nicotinic acid carbamate]
[4]
  % Prodrug Remaining: 100%
[5]
  % Prodrug Remaining: 100%
[6]
  % Prodrug Remaining: 100%
[7]
  % Prodrug Remaining: 100%
[1]; [8]
  IC50: 55 µM

## COc1ccc2c3c1O[C@H]1C[C@@H](OC(=O)[C@@H](N)C(C)C)C=C[C@@]31CCN(C)C2 [Galantamine-(S)-valine ester, galantamine-(S)-valine ester tartrate]
ferret; 20 mg/kg p.o. (galantamine free base content), 2 hr. observation, individual ferrets, listed as Galantamine valine ester tartrate
  Total number of individual incidences of: Retching: 22 and 0 (6×) and 2 (2×) and 3 and 14
ferret; 20 mg/kg p.o., 2 hr. observation, Mean
  Total number of individual incidences of: Retching: 3.9
ferret; [10]
  Time (min) to onset of: Retching: 35 min and >120 min (6×) and 106 min and 11 min and 9 min and 6 min
  Time (min) to onset of: Vomiting: 44 min and >120 min (9×) and 9 min
  Total number of individual incidences of: Vomiting: 1 and 0 (9×) and 3

## galantamine-(S)-valine ester tartrate
ferret; [11]
  animals dosed that retched: 45%
  animals dosed that vomited: 18%

## galantamine (glutaryl-PABA) ester trifluoroacetate [Galantamine [glutaryl-PABA] ester]
FaSSIF (pH 6.5), 37 deg. C., 0 hours
  % Prodrug Remaining: 96%
FaSSIF (pH 6.5), 37 deg. C., 2 hour
  % Prodrug Remaining: 86%
FeSSIF (pH 6.5), 37 deg. C., 0 hours
  % Prodrug Remaining: 85%
FeSSIF (pH 6.5), 37 deg. C., 2 hours
  % Prodrug Remaining: 90%
